Results taken from ChEMBL document CHEMBL1152247, “Identification of novel inhibitors of extracellular signal-regulated kinase 2 based on the structure-based virtual screening” (Bioorg Med Chem Lett, 2008).

Columns and labels:
[1] = target: T1, Mitogen-activated protein kinase 1 (Homo sapiens, UniProt P28482); assay: Inhibition of recombinant ERK2
[2] = target: T1, Mitogen-activated protein kinase 1; assay: Inhibition of recombinant ERK2 at 100 uM
[3] = target: Mitogen-activated protein kinase 14 (Homo sapiens) (UniProt Q16539); assay: Inhibition of p38-alpha at 100 uM
Mitogen-activated protein kinase 14 (Homo sapiens), sequence (Q16539 whole entry): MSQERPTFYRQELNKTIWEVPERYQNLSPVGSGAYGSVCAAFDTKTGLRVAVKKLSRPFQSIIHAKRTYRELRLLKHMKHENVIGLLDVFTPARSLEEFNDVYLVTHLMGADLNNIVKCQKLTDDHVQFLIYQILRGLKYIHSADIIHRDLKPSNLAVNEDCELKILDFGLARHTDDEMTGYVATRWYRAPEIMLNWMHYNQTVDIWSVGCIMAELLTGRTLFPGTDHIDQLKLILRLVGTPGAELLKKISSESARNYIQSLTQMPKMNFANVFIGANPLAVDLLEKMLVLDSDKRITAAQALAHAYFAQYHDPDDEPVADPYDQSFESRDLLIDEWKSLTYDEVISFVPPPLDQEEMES

T1 sequence (P28482 whole entry): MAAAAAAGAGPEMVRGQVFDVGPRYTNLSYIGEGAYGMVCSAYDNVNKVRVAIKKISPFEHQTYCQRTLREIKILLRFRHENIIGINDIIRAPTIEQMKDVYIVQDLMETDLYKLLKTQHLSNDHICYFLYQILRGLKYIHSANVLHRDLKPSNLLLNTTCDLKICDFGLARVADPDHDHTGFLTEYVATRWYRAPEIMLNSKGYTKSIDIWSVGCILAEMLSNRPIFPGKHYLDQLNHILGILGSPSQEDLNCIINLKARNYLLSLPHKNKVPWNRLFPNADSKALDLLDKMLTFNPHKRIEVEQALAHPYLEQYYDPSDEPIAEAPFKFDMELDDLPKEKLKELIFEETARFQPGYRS

| SMILES | IC50 [1] | inhibition [2] | inhibition [3] |
| --- | --- | --- | --- |
| O=C1/C(=C/c2ccc(O)cc2)SC(=S)N1Cc1ccccc1 | 5.5 µM | 92.7% | 16.7% |
| O=C(Nc1nc(NC(=O)c2ccccc2)n(-c2ccccc2)n1)c1ccccc1 | 8.3 µM | 93.1% | 24.5% |
| O=C(Nc1nc(NC(=O)c2ccco2)n(-c2ccccc2)n1)c1ccccc1 | 18.3 µM |  |  |
| COc1ccccc1-c1c[nH]nc1-c1ccc(OCc2ccccc2F)cc1O | 27.4 µM |  |  |
| COc1cc(/C=C2\SC(=S)N(Cc3ccccc3)C2=O)ccc1O | 14.3 µM |  |  |
| O=C1/C(=C/C=C/c2ccccc2)SC(=S)N1Cc1ccc2c(c1)OCO2 | 23.7 µM |  |  |
| O=C(/C=C/c1ccccc1)Nc1nc(NC(=O)c2ccccc2)nn1-c1ccccc1 | 25.6 µM |  |  |
| Cc1ccc(COc2ccc(-c3n[nH]cc3-c3ccccc3)c(O)c2)cc1 | 16.9 µM | 87.9% | 12.3% |
